Measurements from patent publication US20250224399A1, “METHOD FOR DETECTING HOMOCYSTEINE IN PLASMA AND METHOD FOR DIAGNOSING GLIOBLASTOMA BY USING NOVEL FLUORESCENT PROBE” (UNIVERSITY-INDUSTRY COOPERATION GROUP OF KYUNG HEE …, priority 2022, published 2025).

Assays:
[1] = Homocysteine sensing ability in mouse feces; conditions: extract of mouse feces, probe 10 μM, 10 minutes at 37° C., excitation 460 nm
Procedure: (§1) In order to identify the detection ability of Compound 1 (NPO-pyr) for homocysteine present in mouse plasma and feces, plasma (20 μL) isolated from blood and an extract (9.5 mg) extracted from mouse feces were dissolved in an aqueous solution (DI. H2O) (5 mL), treated with homocysteine at various concentrations (1 to 160 ng/μL), and then treated with Compound 1 (10 μM). After stirring for 10 minutes in a stirrer at 37° C. for reaction, the fluorescence spectrum was measured (excitation wavelength: 460 nm). Compound 1 was dissolved in DMSO solution at […] and used, and the amount of DMSO was ensured to be the same in each container (less than 1%) under the final solvent conditions used.

[2] = Homocysteine reaction time and selectivity among amino thiols (fluorescence over 0 to 30 minutes); conditions: pH 7.4 PBS buffer
Procedure: In order to identify whether Compound 1 (NPO-pyr) would react with various types of aminothiols including homocysteine under neutral conditions (pH 7.4), Compound 1 and aminothiol were added to an aqueous solution of neutral conditions (pH 7.4, PBS buffer) and the fluorescence emission graph was measured.
Specifically, Compound 1 (10 μM) was reacted with homocysteine (DL-homocysteine, 10 μM), cysteine (10 μM), glutathione (L-glutathione, 10 μM), and hydrogen sulfide (10 μM) in an aqueous solution (pH 7.4, PBS buffer), and the fluorescence value was measured (excitation wavelength: 460 nm). Amino thiols including homocysteine were purchased from Sigma, TCI, and a fluorophotometer (SHIMADZU CORP. RF-6000, Japan) was used for fluorescence spectra analysis. In this connection, the cell that puts the compound into each device was a standard quartz cell with a thickness of 1 cm (internal volume=[…]).

[3] = Stability in aqueous solution; format: physicochemical; conditions: pH 7.4, PBS buffer
[4] = Selectivity toward biomolecules, thiols and metal ions (fluorescence at 550 nm); conditions: pH 7.4 PBS buffer, excitation 460 nm, emission 550 nm
Procedure: An aqueous solution (pH 7.4, PBS buffer) was used, and metal ions were purchased from Aldrich, Oriental Chemicals, Samchun chemicals, and Duksan chemicals. Compound 1 was dissolved in dimethyl sulfoxide (DMSO) at 10 mM and used, and the amount of dimethyl sulfoxide was controlled to be the same in each solvent (less than 1%) under the final solvent conditions used. The concentration of Compound 1 was 10 μM, and the biomolecule was treated identically at 10 μM. The excitation wavelength was 460 nm, and the fluorescence value at a fluorescence wavelength of 550 nm was measured using a fluorescence spectrophotometer, and is shown in FIG. 3.
The types of ions indicated on the horizontal axis in the graph of FIG. 3 are as follows: • (A) Probe 1 with DL-Homocysteine; • (B) Probe 1 with L-Cysteine; • (C) Probe 1 with L-Glutathion; • (D) Probe 1 with Hydrogen sulfide; • (E) Probe 1 with Bovine Serum Albumin; • (F) Probe 1 with Holmium (III) chloride; • (G) Probe 1 with Iron (II) chloride; • (H) Probe 1 with Iron (III) chloride; • (I) Probe 1 with Magnesium chloride; • (J) Probe 1 with Nikel (II) chloride; • (K) Probe 1 with Phosphorus pentachloride; • (L) Probe 1 with Gold trichloride; • (M) Probe 1 with Palladium (II) chloride; • (N) Probe 1 with potassium chloride; • (O) Probe 1 with Silver nitrate; • (P) Probe 1 with Sodium chloride; and • (Q) Probe 1 with Cobalt chloride.

[5] = Fluorescence intensity in plasma of glioblastoma mice versus normal mice; set-up: species or system mouse; conditions: plasma 7 and 14 days after the induction of glioblastoma, excitation 460 nm, emission 550 nm
Procedure: First, in order to prepare the experimental group, a glioblastoma mouse model was created by administering a solution containing 5.0×10^5 cells in 5 μL of cell culture media without fetal bovine serum (FBS) using LUC-U87MG cells (glioblastoma cells) to the mouse brain (thalamus).
In order to identify the reaction between Compound 1 and mouse plasma, a fluorescence measuring device (Spectro-fluorophotometer: SHIMADZU CORP. RF-6000, Japan) was used. The glass cuvette used for fluorescence measurements was a standard quartz cell with a thickness of 1 cm on all sides (internal volume=0.1 cm, Hellma Analytics, Jena, Germany).
In addition, in order to identify the reaction between Compound 1 and mouse plasma, blood was collected from the control group and the experimental group, the plasma was isolated, reacted with Compound 1, and then the fluorescence intensity was measured at an emission wavelength of 550 nm using a fluorescence measuring device (Spectro-fluorophotometer; SHIMADZU CORP. RF-6000, Japan) (excitation wavelength: 460 nm). The glass cuvette used for fluorescence measurements was a standard quartz cell with a thickness of 1 cm on all sides (internal volume=0.1 cm, Hellma Analytics, Jena, Germany).

[6] = pH-dependent homocysteine sensing ability (fluorescence at 550 nm); conditions: 10 μM probe, 10 μM homocysteine, stirred 10 minutes, excitation 460 nm, emission 550 nm
Procedure: The present inventors identified the homocysteine sensing ability of Compound 1 (NPO-pyr) according to acidity (pH).
Specifically, in order to observe the sensitivity of acidity (pH) to homocysteine based on the fluorescence turning-on of Compound 1, the sensitivity was identified under various acidity conditions (pH 3 to 9) while fixing the concentrations of Compound 1 (10 μM) and homocysteine (10 μM). In other words, 10 µM of homocysteine was treated under the conditions of pH 3, 5, 7, 7.4, and 9, respectively, and 10 μM of Compound 1 was stirred for 10 minutes, and then the fluorescence intensity was measured. In this connection, an excitation wavelength of 460 nm was used, and a fluorescence emission wavelength of 550 nm was measured. The fluorescence intensity is shown in the bar graph in FIG. 4.

[7] = Homocysteine sensing ability in mouse plasma (limit of detection); conditions: probe 10 μM, 10 minutes at 37° C., excitation 460 nm
Procedure: as §1

## O=[N+]([O-])c1ccc(Oc2ccncc2)c2nonc12 [Compound 1, 4-nitro-7-(pyridine-4-yloxy)benzo[c] [1,2,5] oxadiazole]
[1]
  ability to sense homocysteine in mouse feces: potential to sense homocysteine
[2]; 10 μM probe, 10 μM homocysteine, excitation 460 nm
  time to increase in fluorescence after the addition of homocysteine (reaction time): ≤ 5 min
[2]; cysteine, glutathione, hydrogen sulfide, each 10 μM
  fluorescence emission with other amino thiols except homocysteine: no fluorescence emission was observed
[3]
  stability in an aqueous solution: showed stability
[4]; 10 μM probe, 10 μM DL-homocysteine
  fluorescence intensity with homocysteine (A): strong fluorescence intensity value
[4]; 10 μM probe, 10 μM analyte
  fluorescence turn-on under amino thiol, metal ion and biomolecule conditions other than homocysteine: little fluorescence turn-on phenomenon
[4]; 10 μM
  fluorescence intensity, probe alone (Only NPO-pyr): almost no fluorescence intensity value
[5]
  fluorescence intensity in plasma of the experimental group (glioblastoma mice) compared to the control group (normal mice): stronger fluorescence intensity
[6]
  sensitivity of the reaction with homocysteine at other pHs (3, 5, 9): relatively weak
  sensitivity of the reaction with homocysteine at pH 7 and 7.4: most sensitive
[7]
  LOD value for homocysteine: 0.176 ppm
[7]; printed conversion of the ppm value
  LOD value for homocysteine: 1.3 µM
